We go through three molecules from BindingDB's records for doi:10.1016/S0960-894X(00)80682-4 (1993).

Experiment [1] can be described thus: Tested for its activity to inhibit the binding of [125I]gastrin to gastric glands (gastrin) in guinea pig.
A short description of experiment [2]: Tested for its activity to inhibit the binding of [125I]CCK-33 to Cholecystokinin type B receptor in guinea pig brain.
Experiment [3] in a line: Tested for its activity to inhibit the binding of [125I]gastrin to gastric glands (gastrin) in guinea pig. This is another data set of the same source.

As usually defined, the IC50 is the point on the concentration scale where inhibition reaches its midpoint. Low values mean higher potency, high ones lower potency. Take `O=C(Nc1cc2c3ccccc3nc-2c[nH]1)c1ccccc1` [N-(9H-beta-Carbolin-3-yl)-benzamide]: the figures for the IC50 in experiment [1] and in experiment [2] were over 100 µM and 223 µM, respectively.
As for `Cn1c(C(=O)Nc2cc3c4ccccc4nc-3c[nH]2)cc2ccccc21` [1-Methyl-1H-indole-2-carboxylic acid (9H-beta-carbolin-3-yl)-amide], the IC50 in experiment [3] and in experiment [2] was over 100 µM in each case.
As to `O=C(Cc1ccccc1)Nc1cc2c3ccccc3nc-2c[nH]1` [N-(9H-beta-Carbolin-3-yl)-2-phenyl-acetamide], the IC50 in experiment [1] was 14 µM; in experiment [2] it was 34 µM.
